Reference: US9302988B2, “Fluoromethyl-substituted pyrrole carboxamides” (GRÜNENTHAL GMBH, priority 2012, dated 2016)

Molecular target: T1, Human CaV2.2 channels (Homo sapiens, UniProt Q00975)
T1 construct: expressed in transfected cells
Experiment: Fluorescent assay for CaV2.2 channels using potassium depolarization to induce channel opening (FLIPR, Fluo-4)
Type: cell-based
Conditions: 3 μM test compound, 30 mM KCl, HEK293 cells stably expressing human CaV2.2; read-out: %-Inhib (CaV2.2) @3 μM @30 mM KCl
Outline: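 HEK293 cells stably co-expressing CaV2.2 with α2δ and β subunits plus Kir2.3 were Fluo-4 loaded, then preincubated 15 min at 25 °C with compound in 30 mM KCl buffer, pH 7.4. Depolarization was by adding buffer containing 210 mM KCl. Inhibition was taken from baseline-normalized peak fluorescence amplitude (ex 480/em 535 nm).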

T1 sequence (Q00975 whole entry): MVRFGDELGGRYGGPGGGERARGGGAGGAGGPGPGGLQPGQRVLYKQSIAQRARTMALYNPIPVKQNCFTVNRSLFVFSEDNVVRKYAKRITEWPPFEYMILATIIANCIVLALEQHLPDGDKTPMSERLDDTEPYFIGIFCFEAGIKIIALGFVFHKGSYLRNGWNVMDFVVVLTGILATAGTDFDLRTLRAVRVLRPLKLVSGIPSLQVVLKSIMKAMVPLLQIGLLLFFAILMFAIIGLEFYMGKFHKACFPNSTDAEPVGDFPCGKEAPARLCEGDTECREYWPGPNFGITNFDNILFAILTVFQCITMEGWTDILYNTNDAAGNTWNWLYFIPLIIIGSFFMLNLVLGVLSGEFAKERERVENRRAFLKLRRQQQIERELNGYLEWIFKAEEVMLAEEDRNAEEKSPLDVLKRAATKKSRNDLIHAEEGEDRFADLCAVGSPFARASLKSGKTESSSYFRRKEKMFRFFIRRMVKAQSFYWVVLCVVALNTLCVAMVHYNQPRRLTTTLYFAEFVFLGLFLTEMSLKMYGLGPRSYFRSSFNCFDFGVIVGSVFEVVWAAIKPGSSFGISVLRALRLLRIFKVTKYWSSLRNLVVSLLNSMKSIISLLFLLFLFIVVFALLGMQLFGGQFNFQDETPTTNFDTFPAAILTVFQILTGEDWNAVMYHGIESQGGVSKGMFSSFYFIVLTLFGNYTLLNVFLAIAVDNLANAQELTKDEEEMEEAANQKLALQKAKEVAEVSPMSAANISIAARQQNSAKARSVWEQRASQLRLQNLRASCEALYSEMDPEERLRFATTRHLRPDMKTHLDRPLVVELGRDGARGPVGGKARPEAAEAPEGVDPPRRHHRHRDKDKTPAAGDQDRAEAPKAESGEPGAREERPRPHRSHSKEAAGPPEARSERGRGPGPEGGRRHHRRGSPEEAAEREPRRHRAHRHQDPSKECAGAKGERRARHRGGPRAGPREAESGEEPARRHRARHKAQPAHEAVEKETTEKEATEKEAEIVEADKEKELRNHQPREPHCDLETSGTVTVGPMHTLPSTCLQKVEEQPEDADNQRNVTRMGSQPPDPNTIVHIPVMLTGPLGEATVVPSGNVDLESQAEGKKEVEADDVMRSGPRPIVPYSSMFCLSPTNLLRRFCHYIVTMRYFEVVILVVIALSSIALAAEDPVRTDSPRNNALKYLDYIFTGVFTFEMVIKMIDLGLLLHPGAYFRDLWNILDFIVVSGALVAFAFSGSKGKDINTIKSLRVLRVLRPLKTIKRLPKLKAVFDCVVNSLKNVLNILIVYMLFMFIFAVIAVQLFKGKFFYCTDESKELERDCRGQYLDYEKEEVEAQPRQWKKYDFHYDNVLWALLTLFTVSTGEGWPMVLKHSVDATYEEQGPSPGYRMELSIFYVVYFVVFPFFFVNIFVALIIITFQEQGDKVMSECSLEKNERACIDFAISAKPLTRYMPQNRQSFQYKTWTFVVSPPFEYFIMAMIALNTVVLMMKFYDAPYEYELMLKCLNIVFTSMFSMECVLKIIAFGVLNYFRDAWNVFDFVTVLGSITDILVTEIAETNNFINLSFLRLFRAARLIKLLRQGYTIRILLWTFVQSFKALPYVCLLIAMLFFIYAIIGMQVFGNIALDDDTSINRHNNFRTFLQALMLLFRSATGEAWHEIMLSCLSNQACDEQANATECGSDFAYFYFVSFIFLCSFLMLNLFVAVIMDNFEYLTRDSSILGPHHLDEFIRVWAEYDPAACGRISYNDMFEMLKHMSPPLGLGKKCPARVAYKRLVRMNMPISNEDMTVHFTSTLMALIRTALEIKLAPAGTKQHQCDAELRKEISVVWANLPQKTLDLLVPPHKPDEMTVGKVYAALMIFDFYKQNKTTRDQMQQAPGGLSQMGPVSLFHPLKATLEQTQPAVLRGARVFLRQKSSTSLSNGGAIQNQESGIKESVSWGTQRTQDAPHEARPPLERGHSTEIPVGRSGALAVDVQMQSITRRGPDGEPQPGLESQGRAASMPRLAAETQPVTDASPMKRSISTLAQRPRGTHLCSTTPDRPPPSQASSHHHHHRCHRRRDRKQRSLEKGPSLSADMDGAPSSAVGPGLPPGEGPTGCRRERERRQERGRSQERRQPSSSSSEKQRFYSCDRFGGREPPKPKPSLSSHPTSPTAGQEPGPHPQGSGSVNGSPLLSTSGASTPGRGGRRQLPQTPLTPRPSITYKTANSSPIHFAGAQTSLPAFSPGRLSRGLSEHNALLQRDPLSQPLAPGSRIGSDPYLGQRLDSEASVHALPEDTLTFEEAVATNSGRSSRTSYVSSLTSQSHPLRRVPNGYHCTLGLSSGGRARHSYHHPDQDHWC
T1 sequence (P54289 25-1103, further chain): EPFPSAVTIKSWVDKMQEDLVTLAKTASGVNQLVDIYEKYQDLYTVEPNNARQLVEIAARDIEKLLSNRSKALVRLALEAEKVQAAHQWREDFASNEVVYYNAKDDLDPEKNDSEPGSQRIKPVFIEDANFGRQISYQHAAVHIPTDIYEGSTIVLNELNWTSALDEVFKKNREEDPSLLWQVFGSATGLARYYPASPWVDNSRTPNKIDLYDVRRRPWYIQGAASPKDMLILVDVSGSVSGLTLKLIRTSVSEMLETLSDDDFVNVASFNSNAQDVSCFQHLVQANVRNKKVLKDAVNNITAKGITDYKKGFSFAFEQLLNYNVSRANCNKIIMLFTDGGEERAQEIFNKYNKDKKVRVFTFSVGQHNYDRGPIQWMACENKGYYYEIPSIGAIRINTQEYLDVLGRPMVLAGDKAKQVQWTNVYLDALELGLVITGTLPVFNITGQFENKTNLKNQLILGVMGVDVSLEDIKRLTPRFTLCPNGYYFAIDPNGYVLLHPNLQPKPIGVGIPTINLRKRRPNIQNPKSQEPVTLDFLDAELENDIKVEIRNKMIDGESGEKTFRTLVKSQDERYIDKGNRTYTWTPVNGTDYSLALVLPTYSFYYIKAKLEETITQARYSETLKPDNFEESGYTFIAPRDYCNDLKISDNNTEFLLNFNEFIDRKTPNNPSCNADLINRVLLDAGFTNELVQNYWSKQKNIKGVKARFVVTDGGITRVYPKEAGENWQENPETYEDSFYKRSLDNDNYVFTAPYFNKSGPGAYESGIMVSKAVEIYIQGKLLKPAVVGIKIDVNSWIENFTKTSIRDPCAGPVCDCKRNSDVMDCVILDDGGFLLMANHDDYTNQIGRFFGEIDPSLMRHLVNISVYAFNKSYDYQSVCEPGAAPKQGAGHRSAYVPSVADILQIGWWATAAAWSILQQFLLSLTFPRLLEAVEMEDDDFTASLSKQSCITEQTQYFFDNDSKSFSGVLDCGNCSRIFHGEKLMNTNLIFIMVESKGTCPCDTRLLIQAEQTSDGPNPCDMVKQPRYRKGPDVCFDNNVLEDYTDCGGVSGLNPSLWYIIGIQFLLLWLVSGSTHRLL
T1 sequence (P54284 whole entry, further chain): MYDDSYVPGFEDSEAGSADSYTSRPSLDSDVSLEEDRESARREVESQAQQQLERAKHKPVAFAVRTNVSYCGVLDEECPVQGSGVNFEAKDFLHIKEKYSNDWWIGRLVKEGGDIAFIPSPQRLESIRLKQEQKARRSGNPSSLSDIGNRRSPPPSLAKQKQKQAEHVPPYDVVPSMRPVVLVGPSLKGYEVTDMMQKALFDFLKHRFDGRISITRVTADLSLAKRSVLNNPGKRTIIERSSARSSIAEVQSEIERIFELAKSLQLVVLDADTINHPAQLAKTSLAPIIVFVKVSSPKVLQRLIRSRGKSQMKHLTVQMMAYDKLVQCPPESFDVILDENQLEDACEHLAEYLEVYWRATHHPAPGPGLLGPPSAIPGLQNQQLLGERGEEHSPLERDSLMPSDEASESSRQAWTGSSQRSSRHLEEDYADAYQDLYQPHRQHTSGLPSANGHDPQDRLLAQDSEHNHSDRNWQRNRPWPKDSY

Compound: Cc1c(-c2ccc(Cl)cc2)c(C(=O)N(C)C(CO)C(C)(C)C)n(Cc2ccccc2)c1C(F)(F)F (stereo not shown) [SC-124, 1-Benzyl-3-(4-chlorophenyl)-N-[1-(hydroxymethyl)-2,2-dimethyl-propyl]-N,4-dimethyl-5-(trifluoromethyl)-1H-pyrrole-2-carboxylic acid amide]
- inhibition at 3 µM: > 95%
